The record followed here is patent US20060046972A1, “Cytotoxic nucleoside analog compound 003 for treating cancer” (Parker Hughes Institute, priority 2004, published 2006).

Data set [1] concerns BT20 breast cancer cells. Put plainly: Confocal laser scanning microscopy of microtubules / mitotic spindle, BT20. Type of data set: cell-based, human. On the procedure:
Immunofluorenscence was used to examine the spindle features of human cancer cell lines treated with Compound 003 or 0.5% DMSO. […] The coverslips were incubated with antibodies raised against α-tubulin, γ-tubulin (Sigma Chemical Co., St Louis, Mo.) (40 min 37° C.), washed in PBS-Tx-100, and incubated with an appropriate secondary antibody conjugated to FITC (Jackson ImmunoResearch, Westgrove, Pa.). Cellular DNA was labeled with 5 μM TOTO3 (Molecular Probes, Eugene, Oreg.) for 20 minutes. Coverslips were immediately inverted onto slides in Vectashield (Vector Labs, Burlingame, Calif.) to prevent photobleaching, sealed with nail varnish and stored at −20° C. The slides were examined using a Bio-Rad MRC-1024 Laser Scanning Confocal Microscope equipped with a Kr/Ar laser (BioRad, Hercules, Calif.) mounted on a Nikon Eclipse E800 upright microscope with high numerical aperture objectives (Nikon, Melville, N.Y.). Digital data were processed using Lasersharp (BioRad) and Adobe Photoshop software (Adobe Systems, Mountain View, Calif.). ( See, for example, Navara, et al., 2001, Anticancer Drugs. 12:369; Malaviya, et al., 2002, Leuk Lymphoma. 43, 1329; and Ghosh, 1998, Clin Cancer Res. 4, 2657).

Data set [2] relates to DAUDI, human Burkitt's lymphoma. Put plainly: DNA flow cytometry of cell cycle arrest, DAUDI. Type of data set: cell-based. To be noted: 100 μM, 48 hour. On the procedure:
Exponentially growing tumor cells were cultured at 1×10^6 cells/ml in clonogenic medium (RPMI 1640 medium +1% penicillin/streptomycin +10% heat-inactivated fetal bovine serum, 2 mML-glutamine, and 10 mM Hepes buffer) in the presence or absence of 100 μM compound 003 for 48 hour at 37° C., 5% CO2. At 48 h, cells were washed two times in fresh clonogenic medium, trypsinized, fixed in ice cold ethanol and labeled with propidium iodide to quantify their DNA content, as described previously (See, for example, Navara, et al., 2001, Anticancer Drugs. 12:369). Quantitative DNA analysis was performed on a Becton Dickenson Calibur flow cytometer equipped with a Consort 40 computer using the COTFIT program, which includes CELLCY, a cell cycle distribution function that fits DNA content histograms and calculates-the percentages of cells in G, S, and GM phases of the cell cycle, as described, for example, in Uckun et al., 1996, J Biol Chem. 271, 6389.

Data set [3] deals with BT20 breast cancer cell line. Put plainly: Intracellular metabolism of Compound 003 to ala-AZT-MP, BT20. It is filed as in vitro ADME, human. To be noted: 25 μM Compound 003. The text has this: Intracellular metabolism of Compound 003 was studied in CEM T-lineage lymphoma cell line, BT20 breast cancer cell line, T98 glioblastoma cell line, and Nalm-6 B-lineage leukemia cell line. CEM and Nalm6 cells were maintained in RPMI supplemented with 10% fetal bovine serum, and 1% penicillin/streptomycin. BT20 and T98 cells w.ere cultured in a medium composed of MEM, 10% fetal bovine serum, 0.1-mM of nonessential amino acids and Earles salts, and 1% penicillin/streptomycin. CEM and Nalm6 cells at a density of 10^6 cells per ml were utilized in the drug metabolism study. BT20 and T98 cells were seeded in 6-cm petri-dishes at 4 million cells and 2 million cells per plate, respectively, the day before the experiment. Either one plate of adherent cells or 10 million non-adherent cells was utilized at each time point. Cells were incubated with various concentrations of the compounds up to 24 hrs at 37° C. After incubation, cells were washed 2 times with ice-cold PBS, and extracted by addition of 0.5-1 ml of 60% methanol. Cell lysates were kept at −20° C. overnight, after which lysates were centrifuged at 15000×g for 10 minutes to remove the cell debris. One hundred microliters of these lysates were injected directly to HPLC. For half-life study, cells at the same density as in drug metabolism study were treated with 100 μM Compound 003 for 2 hrs, after which cells were washed 2 times with ice-cold PBS, and resuspended in warm media until the time they were harvested. For uptake and efflux study, cells were seeded at 2 million cells in 2 ml of media. […] With efflux experiments, cells 1×10^6/mL (the same density as in the uptake study) were incubated with 100 μM Compound 003 for 1 hr, washed 2 times with ice-cold PBS, and resuspended with culture medium without drug, and the metabolite efflux from cells to the medium was measured after 6 hr of incubation. […]

With `COC(=O)C(C)NP(=O)(OCC1OC(n2cc(C)c(=O)[nH]c2=O)CC1N=[N+]=[N-])Oc1ccc(OC)cc1` (stereo not shown) [Compound 003, 3′-azidothymidine 5′-[p-methoxyphenylmethoxyalaninyl phosphate]], the mitotic spindle formation entry in data set [1] (100 μM) is recorded as “induced aberrant multipolar spindle formation”. Moreover, the effect on microtubules entry in data set [1] (185 μM for 24 hours (AZT: similar concentrations)) is recorded as “no microtubules were observed”. In data set [2], the cell cycle arrest entry is reported as “caused G2 arrest”. The “time to peak intracellular metabolite concentration” value in data set [3] is reported as “within an hour”.
